# Entries after “also recorded” stand apart in the source; their conditions may differ. Bridge positions count the residues as written; N and C are the ends. Square brackets hold non-standard residues; d marks the D form. Peptide text beside a SMILES is read from it.
# Columns and labels:
# [1] = biological target: T1, GC-C Receptor (Homo sapiens, UniProt P25092); assay: Cyclic GMP stimulation assay in T84 cells; format: cell-based
# T1 construct: endogenous in cells; host or cells: T84 human colon carcinoma cells
# Procedure: (§1) The potency of test peptides to stimulate cGMP synthesis in T84 cells was assayed by a published procedure (Shailubhai et al. 2000). Briefly, confluent monolayers of T-84 cells in 24-well plates were washed twice with 250 μl of DMEM containing 50 mM HEPES (pH 7.4), pre-incubated at 37° C. for 10 min with 250 μl of DMEM containing 50 mM HEPES (pH 7.4) and 1 mM isobutylmethylxanthine (IBMX), followed by incubation with test peptide for 30 min. The medium was aspirated, and the reaction was terminated by the addition of 3% perchloric acid. Following centrifugation, and neutralization with 0.1 N NaOH, the resulting supernatant was used directly for measurements of intracellular cGMP using an ELISA kit (Caymen Chemical, Ann Arbor, Mich.). Results are expressed as pmol of cGMP/mg of protein in the cell extracts.
# [2] = tested on: myeloperoxidase (MPO) activity in colon tissues; assay: MPO activity in lysates from mid-colon tissues, DSS-induced colitis in BDF-1 mice; format: in vivo, mouse
# Procedure: (§2) A total of 40 samples were chosen for analysis of MPO activity and Ki-67 labeling from the treatment groups that received SP-333, its vehicle control (0.1M phosphate buffer, pH 7) and the reference compound (5-ASA). A random number generator (www.random.org) was employed to select samples from these groups (7 from each of the SP-333-recipient groups and 6 from each of the vehicle and 5-ASA groups).
# Myeloperoxidase activity in colonic tissue samples was performed according to the method described (Krawisc et al., 1984). Briefly, the rate of change in absorbance at 450 nm was recorded when 20 μl of tissue extract was incubated with […] of reaction buffer containing 0.26 mg/ml 0-dianisidine and 0.6 μl/ml H2O2. Each reaction was performed in triplicate. The rate of reaction was determined (initial slope) and normalized to protein concentration of sample.
# [3] = tested on: Ki-67 labeling of crypt epithelial cells; assay: Ki-67 labeling in large bowel cross sections, DSS-induced colitis in BDF-1 mice; format: in vivo, mouse
# Source text: as §2
# Employing standard procedures, two non-serial sections from each animal, were de-waxed in xylene and rehydrated in graded alcohols to PBS (pH 7.4). Endogenous peroxidase was blocked by incubation in 0.3% […] for 30 min. Antigen retrieval was performed by placing the slides in 1 L of citrate buffer (pH 6) and microwaving at high power for 20 minutes. After cooling for 15 minutes, sections were incubated with 10% normal goat serum for 30 minutes to block non-specific binding Primary antibody (mouse monoclonal IgG, clone MIB-1, Dako) at 1/50 dilution was added and incubated for 1 hour at room temperature. Sections were washed and incubated with biotinylated secondary IgG antibody (1/200 dilution; Vector Labs Inc.), for 45 minutes at room temperature. Subsequently, slides were washed and incubated with ABC Elite reagents (Vector Labs Inc.), for 30 minutes at room temperature. […] Sections were counterstained with thionine, dehydrated and mounted.
# [4] = format: in vitro ADME
# Procedure: as §1
# Plecanatide and SP-333 were incubated in simulated intestinal fluid (SIF) for 6-24 h. Inactivated SIF was used as a control. Following the treatment, samples were analyzed by HPLC by cGMP production in T84 cells. […] The active metabolite, SP-338 was characterized by MS and MS/MS and identified to be formed via removal of carboxyl terminal leucine possibly due to cleavage by carboxypeptidases.
# [5] = tested on: T84 cells; assay: MicroRNA microarray analysis of SP-333 treated T84 cells; format: cell-based, human; settings: T84, 1 μM, 5 h
# Procedure: T84 cells were grown to confluence in 100 mm tissue culture dishes. Cells were treated with pre-determined concentration of SP-333 (1 μM) in the presence of phosphodiesterase inhibitor, zaprinast (500 μM; Sigma Aldrich) for 5 hours. Following treatment, cells were trypsinized and the sample was divided into 3 aliquots. One aliquot was used to determine total cGMP. Another was used for extracting total RNA. The last aliquot was used to extract and purify miRNAs using Norgen's Kit (Norgen BioteK). Briefly, cells were lysed using lysis buffer, passed through a column to remove large RNA, followed by capturing miRNA using microRNA enrichment column. Purified samples were stored at −20° C. MicroRNAs were profiled on a LC Sciences microarray chip and TaqMan Open Array Human miRNA panel.
# [6] = Table 8: downregulated under NF-κB
# [7] = Table 8: upregulated under NF-κB
# T1 sequence (P25092 24-1073): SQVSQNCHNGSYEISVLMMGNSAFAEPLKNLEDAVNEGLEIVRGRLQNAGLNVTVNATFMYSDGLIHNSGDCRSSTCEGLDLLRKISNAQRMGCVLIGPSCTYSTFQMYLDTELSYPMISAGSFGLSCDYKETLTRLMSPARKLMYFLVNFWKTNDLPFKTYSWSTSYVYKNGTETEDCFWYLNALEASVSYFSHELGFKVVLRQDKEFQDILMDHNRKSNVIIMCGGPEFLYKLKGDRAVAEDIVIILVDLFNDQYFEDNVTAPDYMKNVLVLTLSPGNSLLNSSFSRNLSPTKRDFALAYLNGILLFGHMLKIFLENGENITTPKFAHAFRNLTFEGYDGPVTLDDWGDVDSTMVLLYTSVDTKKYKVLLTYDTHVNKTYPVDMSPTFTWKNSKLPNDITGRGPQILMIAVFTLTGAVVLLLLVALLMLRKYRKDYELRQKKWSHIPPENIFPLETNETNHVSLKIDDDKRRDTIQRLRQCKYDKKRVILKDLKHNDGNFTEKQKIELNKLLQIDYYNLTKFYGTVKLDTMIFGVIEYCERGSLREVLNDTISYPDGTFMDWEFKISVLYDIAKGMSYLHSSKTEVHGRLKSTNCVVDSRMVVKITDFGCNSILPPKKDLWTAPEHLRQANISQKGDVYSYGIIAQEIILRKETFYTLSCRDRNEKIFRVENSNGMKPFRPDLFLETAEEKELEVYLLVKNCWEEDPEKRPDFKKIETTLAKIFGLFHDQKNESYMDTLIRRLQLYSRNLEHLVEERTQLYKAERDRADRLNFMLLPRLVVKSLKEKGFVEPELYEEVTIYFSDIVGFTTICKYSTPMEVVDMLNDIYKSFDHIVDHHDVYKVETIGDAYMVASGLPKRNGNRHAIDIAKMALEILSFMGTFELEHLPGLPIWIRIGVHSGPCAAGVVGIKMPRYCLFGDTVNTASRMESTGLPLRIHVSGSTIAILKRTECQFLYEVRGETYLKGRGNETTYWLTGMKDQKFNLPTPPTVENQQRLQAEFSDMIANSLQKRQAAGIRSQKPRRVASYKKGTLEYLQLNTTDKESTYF
smiles,measurement,setting,value
"CC(C)C[C@@H]1NC(=O)[C@H](CCC(=O)O)NC(=O)[C@@H](NC(=O)[C@H](CCC(=O)O)NC(=O)[C@H](CC(=O)O)NC(=O)[C@H](N)CC(N)=O)CSSC[C@@H]2NC(=O)[C@H](C)NC(=O)[C@H](C(C)C)NC(=O)[C@H](CC(N)=O)NC(=O)[C@H](C(C)C)NC(=O)[C@H](CSSC[C@@H](C(=O)N[C@H](CC(C)C)C(=O)O)NC(=O)CNC(=O)[C@H]([C@@H](C)O)NC2=O)NC1=O [SP-333, dAsn^1-Asp^2-Glu^3-Cys^4-Glu^5-Leu^6-Cys^7-Val^8-Asn^9-Val^10-Ala^11-Cys^12-Thr^13-Gly^14-Cys^15-dLeu^16] (H-[dN]DECELCVNVACTGC[dL]-OH; disulfide 4-12, 7-15; N-terminus and C-terminus assumed)",potency to stimulate cGMP in T84 cells,[1],dose dependent increase in cGMP
same,EC50,"[1]; 30 min with peptide, 1 mM IBMX",283 nM
same,reduction of MPO activity,[2]; SP-333 0.05 mg/kg,~50%
same,MPO activity,"[2]; SP-333 0.05 mg/kg, p=0.001 vs DSS group (0.048±0.004)",0.024±0.003 units/minute
same,MPO activity compared to DSS treated animals,"[2]; SP-333 all doses, significant (p<0.05) except 0.5 mg/kg",significantly lower; also recorded: considerably reduced; also recorded: much lower
same,"crypts with normal Ki-67 labeling, comparison among groups",[3]; SP-333 0.005 mg/kg,greatest percentage of crypts with normal Ki-67 labeling
same,proportion of Ki-67 positive crypts,[3]; SP-333 0.005 mg/kg/day (DSS control 35.3±4.86%),60.4±6.96%
same,proportion of Ki-67 positive crypts,[3]; SP-333 0.05 mg/kg/day,58.7±7.3%
same,proportion of crypts with Ki-67 labeling vs DSS treated control,[3]; SP-333 treated sections,larger proportions of crypts with Ki-67 labeling
same,biological activity lost,[4],~20%
same,biological activity retained,[4],retains most of its biological activity
same,miR-133b level,[5]; Table 8: downregulated in CRC,increase
same,miR-139-5p level,[5]; Table 8: downregulated in CRC,increase
same,miR-133a level,"[5]; Table 8: downregulated in CRC, p<0.01",increase
same,miR-218 level,[5]; [6],increase
same,miR-223 level,[5]; [6],increase
same,mir-29b level,[5]; [6],increase
same,miR-16 level,"[5]; Table 8: downregulated under NF-κB, p<0.01",upregulated; also recorded: increase
same,miR-15a level,"[5]; Table 8: downregulated under NF-κB, p<0.05",upregulated; also recorded: increase
same,miR-92 level,[5]; Table 8: upregulated in CRC,decrease
same,miR-26b level,[5]; Table 8: upregulated in IBD,decrease
same,miR-28-5p level,[5]; Table 8: upregulated in IBD,decrease
same,miR-98 level,[5]; Table 8: upregulated in IBD,decrease
same,miR-99a level,[5]; Table 8: upregulated in IBD,decrease
same,miR-203 level,[5]; Table 8: upregulated in IBD,decrease
same,miR-362-3p level,[5]; Table 8: upregulated in IBD,decrease
same,miR-532-3p level,[5]; Table 8: upregulated in IBD,decrease
same,miR-10a level,[5]; [7],decrease
same,miR-27b level,[5]; [7],decrease
same,miR-30b level,[5]; [7],decrease
same,miR-301 level,[5]; [7],decrease
same,miR-199-3p level,[5]; Table 8: upregulated under NF-κB and cMyc,decrease
same,miR-224 level,[5]; Table 8: upregulated under cMyc,decrease
same,miR-125b level,[5]; p<0.001,upregulated
same,let-7i level,[5]; p<0.005,upregulated
same,miR-494 level,[5]; p<0.005,reduced
same,miR-41-3p level (negative regulator of c-Src),[5]; p<0.01,significantly increased
same,miR-200c level,[5]; p<0.01,reduced
same,family of miR-29 level,[5]; p<0.05,upregulated
same,miR-30c level,[5]; p<0.05,increased
same,miR-92a level,[5]; p<0.05,reduced

# Reference: patent US20160235807A1, “AGONISTS OF GUANYLATE CYCLASE USEFUL FOR DOWNREGULATION OF PRO-INFLAMMATORY CYTOKINES” (SYNERGY PHARMACEUTICALS, INC., priority 2013, published 2016)
